In ChEMBL document CHEMBL1158288, “Antiinflammatory activity of coumarins from Santolina oblongifolia” (J Nat Prod, 1996):

Tests used:
[1] = Antiinflammatory activity in NMRI mouse macrophages assessed as inhibition of A23187-induced PGE2 release by Ellman's method; type: functional, cell-based; conditions: macrophage
[2] = Antiinflammatory activity in NMRI mouse macrophages assessed as inhibition of A23187-induced PGE2 release at 100 uM by Ellman's method relative to control; type: functional; conditions: Macrophage
[3] = Antiinflammatory activity in NMRI mouse macrophages assessed as inhibition of A23187-induced LTC4 release at 25 uM by Ellman's method relative to control; type: functional; conditions: Macrophage
[4] = Antiinflammatory activity in NMRI mouse macrophages assessed as inhibition of A23187-induced LTC4 release by Ellman's method; type: functional, cell-based; conditions: macrophage
[5] = Antiinflammatory activity in NMRI mouse macrophages assessed as inhibition of A23187-induced LTC4 release at 100 uM by Ellman's method relative to control; type: functional; conditions: Macrophage

Compound `COc1cc2ccc(=O)oc2cc1O[C@@H]1O[C@H](CO)[C@@H](O)[C@H](O)[C@H]1O` [SCOPOLIN] has an IC50 [1] of 77 µmol, an inhibition at 100 µM [2] of 75.7% and an inhibition at 25 µM [3] of 55%.

Work on `CC(Cc1ccc(O)c(O)c1)C(C)Cc1ccc(O)c(O)c1` (configuration not stated) [NORDIHYDROGUAIARETIC ACID] yielded an IC50 [4] of 6 µmol and an inhibition at 100 µM [5] of 78.7%.

`COc1ccc2c(c1)c(CC(=O)O)c(C)n2C(=O)c1ccc(Cl)cc1` [INDOMETHACIN] showed an IC50 [1] of 22 µmol and an inhibition at 100 µM [2] of 78.1%.

For `COc1ccc2ccc(=O)oc2c1` [HERNIARIN], the IC50 [1] was 84 µmol, the inhibition at 100 µM [2] was 65.7% and the inhibition at 25 µM [3] was 2.94%.

Work on `O=c1ccc2cc(O)c(O)cc2o1` [ESCULETIN] yielded an IC50 [1] of 11 µmol, an IC50 [4] of 18 µmol and an inhibition at 100 µM [2] of 71.7%. For the same compound, the inhibition at 25 µM [3] was 71.2%.

For `COc1cc2ccc(=O)oc2cc1O` [SCOPOLETIN], the IC50 [1] was 5 µmol, the inhibition at 100 µM [2] was 77.4% and the inhibition at 25 µM [3] was 8.8%.
